# Results published in the supplement of paper PMC10307832.
# Columns and labels:
# Test in all cases: relative viability (nuclei count vs DMSO), 5 days (fraction); higher = more cells survive
# Masitinib + Lapatinib = compound: Cc1ccc(NC(=O)c2ccc(CN3CCN(C)CC3)cc2)cc1Nc1nc(-c2cccnc2)cs1 [Masitinib] + CS(=O)(=O)CCNCc1ccc(-c2ccc3ncnc(Nc4ccc(OCc5cccc(F)c5)c(Cl)c4)c3c2)o1 [Lapatinib] (partner 2 µM)
# Summary of the method: (§1)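 Lung cancer cell lines in 1536-well plates were dosed by pin tool the day after seeding, either with one drug alone or with a fixed anchor-drug dose plus five library-drug doses (not always all listed) in √10 steps. After 5 days, cells were fixed and their nuclei stained in one step (final 0.05% Triton X-100, 1% formaldehyde, 1 ug/ml Hoechst), then counted on 4× images. Relative viability is the nuclei count in treated wells divided by that in vehicle wells. Values are medians of duplicate plates.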
# [1] = compound: CC1=CC(=CC=C1)NC2=NC(=CS2)C3=CC=NC=C3 + N=C(N)NC(=N)NCCc1ccccc1 [Phenformin] (partner 250 µM)
# Summary of the method: as §1
# [2] = compound: CC1=CC(=CC=C1)NC2=NC(=CS2)C3=CC=NC=C3 + O=C(CCCCCCC(=O)Nc1ccccc1)NO [Vorinostat] (partner 1 µM)
# Summary of the method: as §1
# Masitinib + Vorinostat = compound: Cc1ccc(NC(=O)c2ccc(CN3CCN(C)CC3)cc2)cc1Nc1nc(-c2cccnc2)cs1 [Masitinib] + O=C(CCCCCCC(=O)Nc1ccccc1)NO [Vorinostat] (partner 1 µM)
# Summary of the method: as §1
Cell Line,relative viability (Masitinib + Lapatinib; first compound 0.01 µM),relative viability (Masitinib + Lapatinib; first compound 0.03162 µM),relative viability (Masitinib + Lapatinib; first compound 0.1 µM),relative viability (Masitinib + Lapatinib; first compound 0.3162 µM),relative viability (Masitinib + Lapatinib; first compound 1 µM),relative viability ([1]; first compound 0.08 µM),relative viability ([1]; first compound 0.253 µM),relative viability ([1]; first compound 0.8 µM),relative viability ([1]; first compound 2.53 µM),relative viability ([1]; first compound 8 µM),relative viability ([2]; first compound 0.08 µM),relative viability ([2]; first compound 0.253 µM),relative viability ([2]; first compound 0.8 µM),relative viability ([2]; first compound 2.53 µM),relative viability ([2]; first compound 8 µM),relative viability (Masitinib + Vorinostat; first compound 0.01 µM),relative viability (Masitinib + Vorinostat; first compound 0.03162 µM),relative viability (Masitinib + Vorinostat; first compound 0.1 µM),relative viability (Masitinib + Vorinostat; first compound 0.3162 µM),relative viability (Masitinib + Vorinostat; first compound 1 µM)
NCI-H1651,0.831,0.849,0.829,0.908,0.854,0.346,0.318,0.34,0.33,0.316,0.562,0.547,0.569,0.464,0.596,0.577,0.543,0.56,0.529,0.55
NCI-H2023,0.628,0.823,0.73,0.559,0.776,0.41,0.33,0.424,0.423,0.351,0.594,0.429,0.689,0.531,0.405,0.493,0.583,0.66,0.611,0.721
LOU-NH91,0.781,0.633,0.786,0.563,0.708,0.468,0.364,0.63,0.591,0.744,0.766,0.776,0.887,0.861,0.436,0.84,0.795,0.884,0.793,0.883
NCI-H3122,1.01,1.04,1.02,1.04,1,0.359,0.348,0.364,0.373,0.343,0.912,0.709,1.05,1.03,0.961,0.844,0.982,1.15,1.14,1.05
LCLC-97TM1,0.767,1.13,0.673,1.57,0.715,0.424,0.414,0.456,0.456,0.483,0.558,0.741,0.623,0.601,0.988,0.534,0.778,0.472,0.887,0.712
NCI-H647,0.869,0.919,1.07,1.04,0.994,0.413,0.489,0.5,0.534,0.515,0.576,0.531,0.591,0.498,0.454,0.503,0.533,0.592,0.693,0.619
NCI-H838,0.808,0.846,0.774,0.794,1.02,0.466,0.521,0.537,0.508,0.51,0.64,0.599,0.628,0.582,0.524,0.7,0.664,0.773,0.639,0.703
H3255,,0.268,0.243,0.213,0.248,0.372,0.374,0.365,0.4,0.414,0.758,0.723,0.65,0.666,0.717,0.9,0.9,0.544,0.584,0.761
NCI-H1793,0.631,0.633,0.594,0.456,0.575,0.255,0.293,0.387,0.408,0.316,0.633,0.616,0.771,0.632,0.8,0.828,0.66,0.712,0.379,0.687
LXF-289,0.757,0.879,0.938,0.929,0.894,0.494,0.522,0.514,0.487,0.487,0.746,0.808,0.801,0.679,0.718,0.646,0.818,0.65,0.854,0.743
HCC-827,0.198,0.189,0.19,0.168,0.201,0.416,0.383,0.447,0.445,0.38,0.778,0.772,0.819,0.651,0.653,0.603,0.845,0.712,0.876,0.745
LK-2,1.06,0.836,1.12,1.06,0.941,,0.365,0.584,,0.44,0.356,0.307,0.527,0.402,1,0.246,0.265,0.393,0.225,0.369
HCC-366,0.731,1.1,0.785,0.945,1.13,0.635,0.601,0.576,0.607,0.505,0.248,0.172,0.255,0.186,0.198,,0.335,0.344,0.249,0.334
BEN,0.774,0.675,0.928,0.54,0.65,0.27,0.254,0.285,0.266,0.25,0.566,0.572,0.503,0.536,0.595,0.616,0.533,0.557,0.528,0.557
NCI-H2347,0.826,0.911,0.821,0.833,0.948,0.387,0.381,,0.397,0.419,0.512,0.671,0.411,0.657,0.501,0.601,0.543,0.647,0.651,0.624
NCI-H1395,1.37,1.16,1.39,0.982,0.81,0.402,0.422,0.46,0.367,0.407,0.618,,0.804,0.478,0.537,0.765,0.613,0.787,0.774,0.637
201T,0.763,1.01,0.811,0.882,1.03,0.389,0.38,0.44,0.375,0.433,0.933,0.937,0.92,0.842,0.76,0.74,1.05,0.774,0.78,0.914
NCI-H358,0.465,0.479,0.492,0.494,0.421,0.371,0.35,0.353,0.402,0.387,0.633,0.653,0.518,0.662,0.624,0.72,0.658,0.773,0.641,0.616
NCI-H520,0.949,,0.944,0.82,0.917,0.514,0.538,0.651,0.308,0.559,0.624,0.694,0.779,0.851,0.838,0.796,0.703,0.755,0.932,0.687
NCI-H727,0.923,0.95,0.857,0.914,0.68,,0.376,0.586,0.477,0.4,0.967,,1.1,,1.24,1.13,1.36,1.38,0.988,1.09
HCC-15,0.561,0.919,0.677,0.917,0.852,0.424,0.462,0.483,0.501,0.438,0.678,0.645,0.773,0.67,0.636,0.789,0.814,0.868,0.827,0.811
NCI-H1650,0.607,0.761,0.746,0.774,0.612,0.419,0.328,0.527,0.344,0.245,0.587,0.533,0.489,0.51,0.404,0.492,0.402,0.549,0.437,0.512
ABC-1,1.54,1.15,1.21,1.37,1.16,0.229,0.223,0.193,0.221,0.31,0.944,,1.44,0.963,0.377,1.05,0.997,1.44,1.15,0.877
NCI-H460,0.996,1.13,0.921,1.05,1.26,0.478,0.499,0.511,0.479,0.438,0.54,0.536,0.562,0.462,0.395,0.766,0.418,0.841,0.647,0.758
EPLC-272H,0.948,0.898,0.951,0.914,0.827,0.275,0.224,0.332,0.307,0.294,0.483,0.353,0.465,0.292,0.639,0.4,,0.392,0.464,0.425
